Source: US6066633A, “Metalloproteinase inhibitors” (Adir et Compagnie, priority 1997, dated 2000)
Where a name gives a salt, the structure may show the parent alone. Each block holds one compound with its values, some of them ahead of it.

Key:
ovarian cancers = details: Becket et al., DDT 1996, 1 (1), 16; cited from earlier work
[1] = target: T1, MMP-1 (interstitial collagenase) (Homo sapiens, UniProt P03956); assay: Enzymatic Inhibition of Metalloproteinases (MMP-1); format: biochemical; details: 20 μM substrate, pH 7.7, 37° C., six hours; read-out: IC50 for the enzyme MMP-1
T1 sequence (P03956 100-469): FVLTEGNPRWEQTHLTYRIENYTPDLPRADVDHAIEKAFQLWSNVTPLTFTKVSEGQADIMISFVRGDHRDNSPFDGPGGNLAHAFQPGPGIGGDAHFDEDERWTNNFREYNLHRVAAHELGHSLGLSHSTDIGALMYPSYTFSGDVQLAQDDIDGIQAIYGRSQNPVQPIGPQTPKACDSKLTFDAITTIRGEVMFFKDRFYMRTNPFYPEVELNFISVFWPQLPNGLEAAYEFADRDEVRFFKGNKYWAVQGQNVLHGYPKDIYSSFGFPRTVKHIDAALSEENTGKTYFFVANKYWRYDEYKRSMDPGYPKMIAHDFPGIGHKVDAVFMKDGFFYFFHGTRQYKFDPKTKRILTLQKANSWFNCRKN
Procedure: (§1) Enzymatic Inhibition of Metalloproteinases
(§2) Four recombinant human enzymes MMP-1 (interstitial collagenase), MMP-2 (72 kDa gelatinase A), MMP-3 (stromelysin 1) and MMP-9 (92 kDa gelatinase B) are activated with APMA (4-aminophenylmercuric acetate).
(§3) The enzymatic tests are carried out using a peptido-mimetic substrate:
(§4) DnpProChaGlyCys(Me)HisAlaLys(Nma)NH2,
(§5) which is cleaved between the glycine and the cysteine to yield a fluorescent derivative (Anal. Biochem., 212, 58-64, 1993).
(§6) The reactions, carried out in a buffer of 50 mM Tris, 200 mM NaCl, 5 mM CaCl2, 0.1% Brij 35 at pH 7.7, are initiated using 20 μM substrate in a total volume of 100 μl at 37° C. The fluorescence obtained after six hours is read in a 96-well plate in a fluorimeter equipped with a combination of 340 nm and 400 nm filters for excitation and emission.

[2] = system: neovascularisation (pseudo-vessels) from portions of thoracic aorta; assay: In Vitro Angiogenesis (thoracic aorta portions in type I collagen gel); format: cell-based, male Fischer 344 rats; details: Rattus norvegicus, 120 h, five days of culture in a medium without serum, vascular density
Text: Portions of thoracic aorta of male Fischer 344 rats aged from 8 to 12 weeks are immersed in a type I collagen gel according to the method of Nicosia et Ottinetti (1990). After five days of culture in a medium without serum, the preparations are examined using a microscope and the formation of pseudo-vessels is quantified in terms of vascular density after digitisation and image analysis.

[3] = target: T2, MMP-2 (72 kDa gelatinase A) (Homo sapiens, UniProt P08253); assay: Enzymatic Inhibition of Metalloproteinases (MMP-2); format: biochemical; details: 20 μM substrate, pH 7.7, 37° C., six hours; read-out: IC50 for the enzyme MMP-2
T2 sequence (P08253 110-660): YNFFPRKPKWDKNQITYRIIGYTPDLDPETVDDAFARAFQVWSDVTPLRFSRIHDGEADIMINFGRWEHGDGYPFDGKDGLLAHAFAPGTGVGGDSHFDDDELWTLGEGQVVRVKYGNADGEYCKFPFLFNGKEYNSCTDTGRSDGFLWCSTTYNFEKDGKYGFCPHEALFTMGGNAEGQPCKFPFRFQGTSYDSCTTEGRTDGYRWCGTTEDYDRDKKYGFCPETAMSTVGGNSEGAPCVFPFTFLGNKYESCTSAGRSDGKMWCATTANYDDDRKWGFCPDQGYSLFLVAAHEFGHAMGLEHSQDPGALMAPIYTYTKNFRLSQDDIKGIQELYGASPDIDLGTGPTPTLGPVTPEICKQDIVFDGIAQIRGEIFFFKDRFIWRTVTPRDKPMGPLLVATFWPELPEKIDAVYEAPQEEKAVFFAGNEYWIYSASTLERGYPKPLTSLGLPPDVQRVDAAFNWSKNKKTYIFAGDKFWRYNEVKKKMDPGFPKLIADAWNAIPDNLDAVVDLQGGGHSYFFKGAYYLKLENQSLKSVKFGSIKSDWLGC
Procedure: as §1, §2, §3, §4, §5, §6

MMP-3 (stromelysin 1) = MMP-3 (stromelysin 1) (Homo sapiens, UniProt P08254); assay: Enzymatic Inhibition of Metalloproteinases (MMP-3); format: biochemical; details: 20 μM substrate, pH 7.7, 37° C., six hours; read-out: IC50 for the enzyme MMP-3
MMP-3 (stromelysin 1), sequence (P08254 100-477): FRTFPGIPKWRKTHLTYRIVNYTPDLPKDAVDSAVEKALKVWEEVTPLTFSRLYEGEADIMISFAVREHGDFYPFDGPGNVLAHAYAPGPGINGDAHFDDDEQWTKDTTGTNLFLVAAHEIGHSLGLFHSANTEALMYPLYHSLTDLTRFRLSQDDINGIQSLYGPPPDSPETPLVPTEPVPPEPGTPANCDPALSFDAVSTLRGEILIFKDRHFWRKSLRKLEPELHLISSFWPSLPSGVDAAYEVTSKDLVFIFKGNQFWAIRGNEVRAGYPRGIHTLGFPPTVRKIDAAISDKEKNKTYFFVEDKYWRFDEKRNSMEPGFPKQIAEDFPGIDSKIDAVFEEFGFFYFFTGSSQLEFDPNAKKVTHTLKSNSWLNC
Procedure: as §1, §2, §3, §4, §5, §6

[4] = target: MMP-9 (92 kDa gelatinase B) (Homo sapiens, UniProt P14780); assay: Enzymatic Inhibition of Metalloproteinases (MMP-9); format: biochemical; details: 20 μM substrate, pH 7.7, 37° C., six hours; read-out: IC50 for the enzyme MMP-9
MMP-9 (92 kDa gelatinase B), sequence (P14780 107-707 limits assumed): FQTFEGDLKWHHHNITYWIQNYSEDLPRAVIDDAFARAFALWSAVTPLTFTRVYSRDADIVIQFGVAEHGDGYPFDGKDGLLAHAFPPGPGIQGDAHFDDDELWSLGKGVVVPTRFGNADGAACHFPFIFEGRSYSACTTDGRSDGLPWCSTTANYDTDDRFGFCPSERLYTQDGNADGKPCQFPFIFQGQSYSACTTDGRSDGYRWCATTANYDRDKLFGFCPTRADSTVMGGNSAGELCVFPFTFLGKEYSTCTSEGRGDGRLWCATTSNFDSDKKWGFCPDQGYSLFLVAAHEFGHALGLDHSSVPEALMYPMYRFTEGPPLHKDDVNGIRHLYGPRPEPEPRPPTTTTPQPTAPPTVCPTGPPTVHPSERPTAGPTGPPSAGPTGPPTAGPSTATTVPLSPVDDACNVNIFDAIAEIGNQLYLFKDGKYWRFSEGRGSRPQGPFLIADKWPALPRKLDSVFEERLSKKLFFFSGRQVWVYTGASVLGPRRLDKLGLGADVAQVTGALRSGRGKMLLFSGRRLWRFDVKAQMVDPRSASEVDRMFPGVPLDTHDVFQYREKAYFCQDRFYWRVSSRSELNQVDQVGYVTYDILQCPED
Procedure: as §1, §2, §3, §4, §5, §6

SMILES: CNC(=O)C(Cc1ccccc1)NC(=O)C(CC(C)C)C(CSc1cccs1)C(=O)NO (centres unmarked) [BB94]
anti-tumour activity in clinical use (ovarian cancers): active in ovarian cancers

IC50 [1]: 32.6 nM
SMILES: COc1ccc(S(=O)(=O)N2Cc3c(c4ccccc4n3CC(=O)NCCN3CCOCC3)C[C@@H]2C(=O)NO)cc1 [Example 2, 2-[(4-Methoxyphenyl)sulphonyl]-9-[(2-morpholin-4-ylethylcarbamoyl)methyl]-2,3,4,9-tetrahydro-1H-β-carboline-(3R)-(N-hydroxy)carboxamide Acetate]
inhibition at 1 µM [2]: 50 to 100%

SMILES: COc1ccc(S(=O)(=O)N2Cc3c(c4ccccc4n3CC(=O)NCCSCCN3CCOCC3)C[C@@H]2C(=O)NO)cc1 [Example 11, 2-[(4-Methoxyphenyl)sulphonyl]-9-{[2-(2-morpholin-4-ylethylsulphanyl)ethylcarbamoyl]methyl}-2,3,4,9-tetrahydro-1H-β-carboline-(3R)-(N-hydroxy)carboxamide Hydrochloride]
IC50 [3]: 1.6 nM
IC50 (MMP-3 (stromelysin 1)): 3.1 nM
IC50 [4]: 0.1 nM

SMILES: COc1ccc(S(=O)(=O)N2Cc3c(c4ccccc4n3CC(=O)NCCSCCCN3CCOCC3)C[C@@H]2C(=O)NO)cc1 [Example 13, 2-[(4-Methoxyphenyl)sulphonyl]-9-{[2-(3-morpholin-4-ylpropylsulphanyl)ethylcarbamoyl]methyl}-2,3,4,9-tetrahydro-1H-β-carboline-(3R)-(N-hydroxy)carboxamide Hydrochloride]
inhibition at 1 µM [2]: 50 to 100%

SMILES: COc1ccc(S(=O)(=O)N2Cc3c(c4ccccc4n3CC(=O)N(C)CCN3CCOCC3)C[C@@H]2C(=O)NO)cc1 [Example 15, 2-[(4-Methoxyphenyl)sulphonyl]-9-[N-methyl-(2-morpholin-4-ylethylcarbamoyl)methyl]-2,3,4,9-tetrahydro-1H-β-carboline-(3R)-(N-hydroxy)carboxamide Hydrochloride]
inhibition at 1 µM [2]: 50 to 100%
